# Results published in PubChem BioAssay AID743396 (Broad Institute, 2014).
# Active and inactive are the calls of the source.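 The calls were made as follows: active = fitted curve reaches a 40% rise in fluorescent cells at or below the top valid dose; inactive = opposite-direction effect, or the rest.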
# Assay: compound fluorescence in GFP channel, mTEFS cells – imaging, mTEFS fibroblasts, cherry-pick, artefact control for X-chromosome reactivation project, dose response (AID 743396);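 also: raw share of Hoechst-counted cells scored GFP positive without control normalization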
# Details: mTEFS fibroblasts autofluorescence, GFP-channel imaging, 3 days; at 19.5 µM (top of the series)
row,Compound,% fluorescent cells increase
1,COCCCn1c(N)c(C(=O)Nc2ccccc2)c2nc3ccccc3nc21,0.01% (inactive)
2,COC(=O)Cn1cc(/C=C2\C(=O)NC(=O)N(c3ccc(OC)cc3)C2=O)c2ccccc21,0.304% (inactive)

# Same assay, conditions: mTEFS fibroblasts autofluorescence, GFP-channel imaging, 3 days; at 19.5 µM (top of the series); cells pretreated with 5-aza-dC
row,Compound,% fluorescent cells increase
1,CN(C)C(=O)CN1CCN(Cc2nc(CC3CC3)no2)CC1,0.246% (inactive)
2,CC[N+]1=C(C)C(C)(C)c2cc(C)ccc21,0.089% (inactive)
3,C[C@H](CO)N1C[C@H](C)[C@H](CN(C)S(=O)(=O)c2ccccc2)Oc2ccc(NS(=O)(=O)c3ccc(Cl)cc3)cc2C1=O,0.016% (inactive)
4,CCSc1nnc(NC(=O)c2cc(OC)c(OC)c(OC)c2)s1,0% (inactive)
5,COc1ccc2c3c(n(C)c2c1)[C@@H](CO)N(C)CC31CN(C(=O)NC(C)C)C1,-0.14% (inactive)
6,Cc1ncsc1C(=O)Nc1cccc(C(F)(F)F)c1,0.019% (inactive)
7,Cc1ccc(-c2nc3ccc(Br)cn3c2Cc2ccccc2C(F)(F)F)cc1,0.042% (inactive)
8,COc1ccc(-c2ccc(C(=O)NCc3cccs3)c3occc23)c(C)c1,0.07% (inactive)
9,CCOC(=O)c1nn(-c2ccc3ccccc3c2)cc1O,0.04% (inactive)
10,O=C(NCCOc1ccccc1)c1cc([N+](=O)[O-])ccc1N1CCOCC1,0.343% (inactive)
11,CN(C)C(=O)C[C@@H]1C=C[C@H](NS(=O)(=O)c2ccccc2)[C@@H](CO)O1,0% (inactive)
12,Cc1cc(/C=C2\SC(=S)N(Cc3ccco3)C2=O)c(C)n1-c1ccccc1,0.981% (inactive)
13,O=C(N/N=C/c1ccc([N+](=O)[O-])o1)c1cc2ccccc2o1,1.73% (inactive)
14,O=S(=O)(Nc1cc(Sc2cccc3cccnc23)c(O)c2ccccc12)c1ccccc1,-0.003% (inactive)
15,CC(=NNC(=S)Nc1cccc(Cl)c1)c1ccccn1,0% (inactive)
16,CC(=O)c1c(COC(=O)c2ccccc2Cl)nc2ccccc2[n+]1[O-],0.001% (inactive)
17,C[C@H]1CCCCO[C@H](CN(C)S(=O)(=O)c2ccc(Cl)cc2)[C@@H](C)CN([C@@H](C)CO)C(=O)c2cc(NC(=O)Nc3ccccc3)ccc2O1,1.86% (inactive)
18,Clc1ccc(-c2nc(-c3ccncc3)no2)c(Cl)c1,0% (inactive)
19,CC(Sc1nnc(-c2ccncc2)n1C)C(=O)Nc1ccc(N2CCOCC2)cc1 (centres undefined),0% (inactive)

row,Compound,% fluorescent cells increase
1,Cc1ccccc1OCC(O)CNC1CCC(NCC(O)COc2ccccc2C)CC1 (centres undefined),0% (inactive)
2,COc1cc(CN2CCC(C(=O)NCC(C)(C)CN(C)C)CC2)ccc1OCc1ccccc1,0.013% (inactive)
3,O=C(Nc1ccc(F)cc1)N1CC(=O)N2[C@H](CO)[C@H](c3ccc(C#Cc4ccc(F)cc4)cc3)[C@@H]2C1,-0.166% (inactive)
4,CC1=NN(c2ccc(C)c(C)c2)C(=O)/C1=C\C=C\c1ccc([N+](=O)[O-])o1,-0.007% (inactive)
5,C[C@@H]1C[C@H]2[C@@H]3CCC4=CC(=O)C=C[C@]4(C)[C@@]3(F)[C@@H](O)C[C@]2(C)[C@H]1C(=O)CO,0% (inactive)
6,CO[C@H]1CN(C)C(=O)c2ccc(NC(=O)C3CCCCC3)cc2OC[C@H](C)NC[C@@H]1C,0.009% (inactive)
7,C[C@H](NC(=O)C[C@H]1CC[C@@H](NC(=O)Cc2ccccn2)[C@@H](CO)O1)c1ccccc1,0.008% (inactive)
8,COc1cccc2cc(C(=O)N(Cc3cccs3)CC3CCCO3)c(=O)oc12 (centres undefined),0.013% (inactive)
9,Cc1nn2c(NCCCN(C)C)c3c(nc2c1-c1ccccc1)CCCC3,-0.007% (inactive)
10,CCCNC(=O)N1CC2(CN(S(C)(=O)=O)C2)c2c(n(C)c3cc(OC)ccc23)[C@H]1CO,0.032% (inactive)
11,O=C(OCc1cc(=O)n2c(n1)sc1ccccc12)c1ccc(O)cc1O,-0.007% (inactive)
12,COc1cccc(CNC(=O)c2cc(S(=O)(=O)N3CCOCC3)cn2C)c1,0.274% (inactive)
13,CC(=O)c1ccc(NS(=O)(=O)c2ccc(N/C=C/C(=O)c3ccc(F)cc3)cc2)cc1,0% (inactive)
14,CC[C@]12c3[nH]c4cc(CCC(=O)N(C)C)ccc4c3CCN1C(=O)[C@@H](CC(=O)NCCC1=CCCCC1)C[C@@H]2C(=O)N1CCN(C(=O)c2ccco2)CC1,0.051% (inactive)
15,O=C(O)/C=C/C(=O)Nc1ccc(-n2nccc2C(F)(F)F)cc1,1.85% (inactive)
16,COc1ccc(-n2ncc(Cl)c(Cl)c2=O)cc1,0% (inactive)
17,NNC(=O)c1sc(-c2ccc(Cl)cc2)cc1N,0.125% (inactive)
18,Cc1cccc(-c2ccc([C@H]3[C@H](CO)N4CCCCN(C(=O)NC(C)C)C[C@@H]34)cc2)c1,-0.166% (inactive)
19,COc1cc(/C=C/C(=O)c2ccc([N+](=O)[O-])o2)ccc1O,5.15% (inactive)

row,Compound,% fluorescent cells increase
1,Nc1ccc(-c2nc3ccccc3[nH]2)cc1,0% (inactive)
2,COC(=O)c1cc(NS(=O)(=O)c2ccc(NC(C)=O)cc2)ccc1Cl,0% (inactive)
3,C[C@@H]1CCCCO[C@H](CN(C)Cc2ccc3c(c2)OCO3)[C@@H](C)CN([C@H](C)CO)C(=O)c2cc(NS(=O)(=O)c3ccc(F)cc3)ccc2O1,0.175% (inactive)
4,COc1ccccc1-c1cc(C(=O)N2CCCc3ccccc32)no1,0.006% (inactive)
5,C[C@@H]1ON(C)[C@H]2C[C@H]3c4cc(-c5cccc(F)c5)ccc4CCN3C(=O)[C@@H]12,0% (inactive)
6,O=C(c1ccccc1Cl)N1CCSCCS1(=O)=O,0% (inactive)
7,COc1ccccc1CNC(=O)COC(=O)COc1ccccc1F,1.84% (inactive)
8,COC(=O)c1c(NC(=O)c2ccc(C)cc2)csc1C,-0.006% (inactive)
9,O=C1c2cccc3c([N+](=O)[O-])ccc(c23)C(=O)N1Cc1cccnc1,11.8% (inactive)
10,COCCN(C(=S)Nc1cccc(C)c1)C(C)c1cccnc1 (centres undefined),-0.004% (inactive)
11,CCC(C)c1nc2ccsc2c(N2CCOC2=O)c1-c1ccccc1 (centres undefined),-0.011% (inactive)
12,CC(C)Oc1ccc(/C(O)=C2/C(=O)C(=O)N(CCN(C)C)C2c2cccs2)cc1 (centres undefined),0% (inactive)
13,Nc1ccccc1Nc1cc(-c2ccccc2)[nH]n1,2.52% (inactive)
14,O=C1Nc2ccccc2/C1=C/c1ccccc1Cl,0% (inactive)
15,CCCN(C)C[C@@H]1OCc2cnnn2CCCC(=O)N([C@H](C)CO)C[C@H]1C,0.007% (inactive)
16,Cc1ccccc1NC(=O)c1c(C)[nH]c(=S)c(C#N)c1-c1ccc(Cl)cc1,0.031% (inactive)
17,COc1ccc2c3c(n(C)c2c1)[C@H](CO)N(C(=O)CN1CCOCC1)CC31CCN(C(=O)Nc2cccc(F)c2)CC1,0% (inactive)
18,O=C(N/N=C/c1ccc2cccnc2c1)c1nc2ccccc2c(=O)[nH]1,0.022% (inactive)
19,C[C@@H]1CCCCO[C@@H](CN(C)C(=O)Nc2ccc(C(F)(F)F)cc2)[C@@H](C)CN([C@H](C)CO)C(=O)c2cc(NS(=O)(=O)c3ccc(F)cc3)ccc2O1,-0.166% (inactive)
